Experimental data: paper PMC9783868, “Indoline-5-Sulfonamides: A Role of the Core in Inhibition of Cancer-Related Carbonic Anhydrases, Antiproliferative Activity and Circumventing of Multidrug Resistance” (Pharmaceuticals, 2022)
Where two headings read alike, the source gives them in different places.

Key:
[1] = tested on: MCF7 cells; assay: Antiproliferative activity, MTT test; assay type: cell-based; details: Homo sapiens, MTT assay after 72 h exposure
Procedure: A series of synthesized indoline-5-sulfonamides was tested on the MCF7 cancer cell line under normoxia and hypoxia using the MTT test.
The MDR subline K562/4 [77] (kind gift of Dr. Alexander Shtil, Blokhin N.N. National Medical Research Center of Oncology) was obtained by stepwise selection of K562 cells for survival under continuous exposure to Dox. This subline expresses the MDR1 gene and functional P-gp and is characterized by a high resistance index for Dox. […] Cells in the logarithmic phase of growth were used in the experiments. The growth inhibitory activity of compounds was assessed by the MTT test based on the metabolism of the MTT reagent (3-[4,5-dimethylthiazol-2-yl]-2,5-diphenyltetrazolium bromide) (Applichem) in living cells, with modifications as described previously in [49]. Compounds at different concentrations in 100 μL of the appropriate medium were added, and the cells were grown for 72 h. The hypoxia (1% O2) conditions were simulated in Binder multigas incubator, as described in [49]. After incubation with compounds, the medium was removed, the MTT reagent that was dissolved in the medium was added to the final concentration of 0.2 mg/mL to each well, and the incubation was performed for 2 h. Then the cell supernatants were removed, and purple formazan crystals were dissolved in 100% DMSO (350 μL per well). Culture plates were gently shaken, and the absorbance was measured at 571 nm with a reference wavelength of 630 nm on a MultiScan reader (ThermoFisher, Waltham, MA, USA). The viability of the cells was expressed as a percentage of the control. Dose-response curves were analyzed by regression analysis using sigmoid curves (Log(concentration) vs. normalized absorbance).
All results were reported as means ± SD. One-way analysis of variance was used for the analysis of data. Differences were defined as significant at p < 0.05. GraphPad Prism7 (GraphPad Software, San Diego, CA, USA) was used for the determination of the half-maximal inhibitory concentration (IC50) values.

[2] = target: T1, hCA I (Homo sapiens, UniProt P00915); assay: CA inhibition, stopped-flow CO2 hydration assay; assay type: biochemical; details: stopped-flow technique; mean from three assays
T1 construct: made in house
Procedure: (§1) The CO2 hydration activity of the four hCA isoforms was monitored using an Applied Photophysics stopped-flow instrument. Phenol red (at a concentration of 0.2 mM) was used as an indicator, working at the absorbance maximum of 557 nm, with 10 mM HEPES (pH 7.4) as a buffer, and 20 mM NaClO4 (for maintaining constant the ionic strength), following the initial rates of the CA-catalyzed CO2 hydration reaction for a period of 10–100 s. To determine the kinetic parameters by Lineweaver-Burk plots and the inhibition constants, a concentration of CO2 between 1.7 to 17 mM was used. At least six measurements of the original 5–10% reaction were used to assess the initial velocity for each inhibitor. The uncatalyzed rates were determined and detracted from the total observed rates. Stock inhibitor solutions (10–100 mM) were prepared in distilled-deionized water, and dilutions up to 0.1 nM were done with the buffer test. […] The inhibition constants were obtained by non-linear least-squares methods using PRISM 6 and the Cheng-Prusoff equation, as reported earlier, and represent the mean from at least three different determinations.

[3] = target: T2, hCA II (Homo sapiens, UniProt P00918); assay: CA inhibition, stopped-flow CO2 hydration assay; assay type: biochemical; details: stopped-flow technique; mean from three assays
T2 construct: made in house
Procedure: as §1

[4] = target: T3, hCA IX (Homo sapiens, UniProt Q16790); assay: CA inhibition, stopped-flow CO2 hydration assay; assay type: biochemical; details: stopped-flow technique; mean from three assays
T3 construct: made in house
Procedure: as §1

[5] = target: T4, hCA XII (Homo sapiens, UniProt O43570); assay: CA inhibition, stopped-flow CO2 hydration assay; assay type: biochemical; details: stopped-flow technique; mean from three assays
T4 construct: made in house
Procedure: as §1

[6] = hypoxia (1% O2), read-out: IC50 against MCF7 Cells, Hypoxia
[7] = normoxia, read-out: IC50 against MCF7 Cells, Normoxia

T1 sequence (P00915 whole entry): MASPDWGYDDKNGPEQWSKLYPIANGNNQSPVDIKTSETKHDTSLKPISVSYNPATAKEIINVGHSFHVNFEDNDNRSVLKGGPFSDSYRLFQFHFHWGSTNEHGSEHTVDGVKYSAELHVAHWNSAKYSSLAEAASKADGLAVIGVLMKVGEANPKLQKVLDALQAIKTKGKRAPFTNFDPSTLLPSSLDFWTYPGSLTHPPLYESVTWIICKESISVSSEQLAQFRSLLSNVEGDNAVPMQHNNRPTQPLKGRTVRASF
T4 sequence (O43570 25-354): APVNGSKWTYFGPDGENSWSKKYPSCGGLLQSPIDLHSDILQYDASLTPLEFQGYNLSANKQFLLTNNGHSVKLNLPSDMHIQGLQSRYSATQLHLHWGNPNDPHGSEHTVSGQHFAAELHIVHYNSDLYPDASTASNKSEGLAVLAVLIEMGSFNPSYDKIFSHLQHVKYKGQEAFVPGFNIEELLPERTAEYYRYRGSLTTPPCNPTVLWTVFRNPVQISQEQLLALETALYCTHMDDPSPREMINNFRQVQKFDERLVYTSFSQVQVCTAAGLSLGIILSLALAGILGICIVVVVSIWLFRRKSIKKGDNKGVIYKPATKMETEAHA

Compound	IC50 [1, 6] [nM]	IC50 [1, 7] [nM]	Ki [2] [nM]	Ki [3] [nM]	Ki [4] [nM]	Ki [5] [nM]	melting point [°C]
NS(=O)(=O)c1ccc2c(c1)CCC2NC(=O)c1c(F)c(F)c(F)c(F)c1F (stereo not shown) [Compound 3, reference compound]	> 50000	> 50000					
NS(=O)(=O)c1ccc2c(c1)CCN2C(=O)c1ccccc1 [Compound 4a, 1-Benzoylindoline-5-sulfonamide]	36900 ± 3500	> 50000	79	5.4	> 10000	258	> 250
NS(=O)(=O)c1ccc2c(c1)CCN2C(=O)c1ccc(F)cc1 [Compound 4c, 1-(4-Fluorobenzoyl)indoline-5-sulfonamide]	32700 ± 2800	40600 ± 3800	88.3	9.5	2250	> 10000	> 250
NS(=O)(=O)c1ccc2c(c1)CCN2C(=O)c1c(F)cccc1F [Compound 4d, 1-(2,6-Difluorobenzoyl)indoline-5-sulfonamide]	35900 ± 3400	> 50000	268	9.1	1330	41.3	244 to 246
NS(=O)(=O)c1ccc2c(c1)CCN2C(=O)c1ccc(Cl)cc1 [Compound 4g, 1-(4-Chlorobenzoyl)indoline-5-sulfonamide]	24200 ± 2100	36500 ± 3300	242	66.2	> 10000	57	> 250
NS(=O)(=O)c1ccc2c(c1)CCN2C(=O)c1ccc(Cl)c(Cl)c1 [Compound 4h, 1-(3,4-Dichlorobenzoyl)indoline-5-sulfonamide]	48700 ± 4500	35200 ± 3500	350	54	> 10000	56	> 250
Cc1cccc(C(=O)N2CCc3cc(S(N)(=O)=O)ccc32)c1 [Compound 4i, 1-(3-Methylbenzoyl)indoline-5-sulfonamide]	43600 ± 4000	> 50000	220	36.1	> 10000	93.9	247 to 249
COc1cccc(C(=O)N2CCc3cc(S(N)(=O)=O)ccc32)c1 [Compound 4j, 1-(3-Methoxybenzoyl)indoline-5-sulfonamide]	> 50000	46200 ± 3600	67.7	9.2	> 10000	110	225 to 227
COc1ccc(C(=O)N2CCc3cc(S(N)(=O)=O)ccc32)cc1 [Compound 4k, 1-(4-Methoxybenzoyl)indoline-5-sulfonamide]	> 50000	> 50000	77.7	9.3	173	> 10000	240 to 242
COc1ccc(C(=O)N2CCc3cc(S(N)(=O)=O)ccc32)c(OC)c1 [Compound 4l, 1-(2,4-Dimethoxybenzoyl)indoline-5-sulfonamide]	> 50000	37000 ± 3000	71.5	4	203	113	249 to 251
CSc1ccc(C(=O)N2CCc3cc(S(N)(=O)=O)ccc32)cc1 [Compound 4n, 1-(4-(Methylthio)benzoyl)indoline-5-sulfonamide]	> 50000	18400 ± 1600	71.4	9.3	1990	91	245 to 247
NS(=O)(=O)c1ccc2c(c1)CCN2C(=O)c1ccccc1[N+](=O)[O-] [Compound 4o, 1-(2-Nitrobenzoyl)indoline-5-sulfonamide]	39500 ± 3400	43700 ± 3700	83.4	4.5	> 10000	120	238 to 240
NS(=O)(=O)c1ccc2c(c1)CCN2C(=O)c1ccc([N+](=O)[O-])cc1 [Compound 4p, 1-(4-Nitrobenzoyl)indoline-5-sulfonamide]	39900 ± 3500	48800 ± 4400	60.5	42.2	2110	198	247 to 249
NS(=O)(=O)c1ccc2c(c1)CCN2C(=O)c1ccncc1 [Compound 4q, 1-Isonicotinoylindoline-5-sulfonamide]	> 50000	> 50000	64	12.5	2390	> 10000	> 250
NS(=O)(=O)c1ccc2c(c1)CCN2C(=O)c1cccs1 [Compound 4r, 1-(Thiophene-2-carbonyl)indoline-5-sulfonamide]	39100 ± 3900	47700 ± 3800	42.2	5	177	147	> 250
NS(=O)(=O)c1ccc2c(c1)CCN2C(=O)C1CCCC1 [Compound 4s, 1-(Cyclopentanecarbonyl)indoline-5-sulfonamide]	> 50000	> 50000	60.9	7.1	133	88.1	233 to 235
NS(=O)(=O)c1ccc2c(c1)CCN2C(=O)CC1CCCC1 [Compound 4t, 1-(2-Cyclopentylacetyl)indoline-5-sulfonamide]	36000 ± 3300	38000 ± 3500	51.6	3.5	177	> 10000	184 to 186
NS(=O)(=O)c1ccc2c(c1)CCN2C(=O)C1CCCCC1 [Compound 4u, 1-(Cyclohexanecarbonyl)indoline-5-sulfonamide]	39200 ± 3400	37100 ± 3500	67	1.8	223	> 10000	> 250
